Results taken from US6362369B1, “Phthalic acid diamide derivatives fluorine-containing aniline compounds as starting material, agricultural and horticultural insecticides, and a method for application of the insecticides” (Nihon Nohyaku Co., Ltd., priority 1997, dated 2002).

Assays:
Assay type in all cases: in vivo
[1] = tested on: common cutworm (Spodoptera Litura); experiment: Insecticidal effect on common cutworm (Test Example 2); details: 500 ppm, 25° C.; for Insecticidal effect, Test Example 2: cabbage leaf immersed; for Insecticidal effect, Test Example 2 / Insecticidal effect on common cutworm (Test Example 2), judged grade: eight days after inoculation; for Insecticidal effect (Test Example 2), judged from mortality / Insecticidal effect on common cutworm (Test Example 2), judged grade: cabbage leaf dip; for Insecticidal effect (Test Example 2), judged from mortality: 8 days after inoculation; for Insecticidal effect on common cutworm (Test Example 2), judged grade: second-instar larvae
Method in brief: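 Mortality was scored 8 days post-inoculation, using three groups of 10 second-instar larvae kept at 25 °C in closed 9 cm dishes on air-dried treated material. The insecticidal effect was graded from calculated mortality by a set criterion.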

[2] = tested on: rice leafroller (Cnaphalocrocis medinalis); experiment: Insecticidal effect on rice leafroller (Test Example 3); details: 500 ppm, 25° C., humidity 70%; for Insecticidal effect, Test Example 3: rice lamina immersed; for Insecticidal effect, Test Example 3 / Insecticidal effect on rice leafroller (Test Example 3), judged grade: four days after inoculation; for Insecticidal effect (Test Example 3), judged from mortality / Insecticidal effect on rice leafroller (Test Example 3), judged grade: rice lamina dip; for Insecticidal effect (Test Example 3), judged from mortality: 4 days after inoculation; for Insecticidal effect on rice leafroller (Test Example 3), judged grade: third-instar larvae
Method in brief: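 Insecticidal effect is judged by a predefined criterion from dead/alive counts four days after infesting air-dried lamina with third-instar larvae, kept on moistened filter paper at 25° C, 70% humidity.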

[3] = tested on: diamondback moth (Plutella xylostella); experiment: Insecticidal effect on diamondback moth (Test Example 1); details: for Insecticidal effect, Test Example 1 / Insecticidal effect (Test Example 1), judged from mortality: diamondback moth; for Insecticidal effect (Test Example 1), judged from mortality: judged by the criterion of Test Example 1; for Insecticidal effect on diamondback moth (Test Example 1), judged grade: mortality judged according to the criterion shown in Test Example 1
Method in brief: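 Oviposition by adults on Chinese cabbage seedling; immersion; air-dry; 25° C room. Count of hatched larvae at day 6 post-immersion → mortality → effect graded by criterion. Triplicate, 10 insects/group.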

[4] = second-instar larvae of common cutworm
[5] = third-instar larvae of rice leafroller
[6] = judged by the mortality criterion of Test Example 1
[7] = common cutworm second-instar larvae
[8] = rice leafroller third-instar larvae
[9] = mortality judged by criterion of Test Example 1

SMILES: Cc1cc(OC(F)(F)Br)ccc1NC(=O)c1cccc(Cl)c1C(=O)NC(C)C [compound 140]
- Insecticidal effect, Test Example 2 [1, 4]: A (100)
- Insecticidal effect, Test Example 3 [2, 5]: A (100)
- Insecticidal effect, Test Example 1 [3, 6]: A (100)

SMILES: CCc1cc(C(F)(F)C(F)(F)F)ccc1NC(=O)c1cccc(I)c1C(=O)N(CC)CC [compound 1559]
- Insecticidal effect (Test Example 2), judged from mortality [1, 4]: A (100)
- Insecticidal effect (Test Example 3), judged from mortality [2, 5]: A (100)
- Insecticidal effect (Test Example 1), judged from mortality [3]: A (100)

SMILES: Cc1cc(C(F)(F)C(F)(F)F)ccc1NC(=O)c1cccc(Cl)c1C(=O)NC(C)(C)c1ccccc1 [compound 1417]
- Insecticidal effect, Test Example 2 [1, 7]: A (100)
- Insecticidal effect, Test Example 3 [2, 8]: A (100)
- Insecticidal effect, Test Example 1 [3, 9]: A (100)

SMILES: CC(C)NC(=O)c1cc(Cl)ccc1C(=O)Nc1ccc(Cl)cc1Cl [compound 173]
- Insecticidal effect, Test Example 2 [1, 4]: D (79-50)
- Insecticidal effect, Test Example 3 [2, 5]: D (79-50)
- Insecticidal effect, Test Example 1 [3, 6]: A (100)

SMILES: CCC(C)NC(=O)c1c(Cl)cccc1C(=O)Nc1ccc(C(F)(F)C(F)(F)F)cc1F (stereo not drawn) [compound 1498]
- Insecticidal effect (Test Example 2), judged from mortality [1, 4]: A (100)
- Insecticidal effect (Test Example 3), judged from mortality [2, 5]: A (100)
- Insecticidal effect (Test Example 1), judged from mortality [3]: A (100)

SMILES: Cc1cc(C(F)(F)C(F)(F)F)ccc1NC(=O)c1ccccc1C(=O)NC(C)C [compound 55]
- Insecticidal effect, Test Example 2 [1, 4]: B (99-90)
- Insecticidal effect, Test Example 3 [2, 5]: A (100)
- Insecticidal effect, Test Example 1 [3, 6]: A (100)

SMILES: CC(C)NC(=O)c1c(I)cccc1C(=O)Nc1ccc(Cl)cc1 [compound 345]
- Insecticidal effect, Test Example 2 [1, 4]: B (99-90)
- Insecticidal effect, Test Example 3 [2, 5]: A (100)
- Insecticidal effect, Test Example 1 [3, 6]: A (100)

SMILES: Cc1cc(C(F)(F)C(F)(F)F)ccc1NC(=O)c1cccc(Cl)c1C(=O)NC(C)(C)C#Cc1ccc(OC(F)(F)F)cc1 [compound 1633]
- Insecticidal effect (Test Example 2), judged from mortality [1, 4]: A (100)
- Insecticidal effect (Test Example 3), judged from mortality [2, 5]: A (100)
- Insecticidal effect (Test Example 1), judged from mortality [3]: A (100)

SMILES: CC(C)(C)NC(=O)c1c(I)cccc1C(=O)Nc1ccc(C(F)(F)C(F)(F)C(F)(F)F)cc1F [compound 1504]
- Insecticidal effect (Test Example 2), judged from mortality [1, 4]: A (100)
- Insecticidal effect (Test Example 3), judged from mortality [2, 5]: A (100)
- Insecticidal effect (Test Example 1), judged from mortality [3]: A (100)

SMILES: CCc1cc(C(F)(F)C(F)(F)F)ccc1NC(=O)c1cccc(Cl)c1C(=O)N(CC)CC [compound 1543]
- Insecticidal effect (Test Example 2), judged from mortality [1, 4]: A (100)
- Insecticidal effect (Test Example 3), judged from mortality [2, 5]: A (100)
- Insecticidal effect (Test Example 1), judged from mortality [3]: A (100)

SMILES: CC(C)(C)NC(=O)c1ccccc1C(=O)Nc1ccc(OC(F)(F)F)cc1 [compound 929]
- Insecticidal effect on common cutworm (Test Example 2), judged grade [1]: A (100)
- Insecticidal effect on rice leafroller (Test Example 3), judged grade [2]: A (100)
- Insecticidal effect on diamondback moth (Test Example 1), judged grade [3]: A (100)

SMILES: CCC(C)NC(=O)c1c(Cl)cccc1C(=O)Nc1ccc(C(F)(F)C(F)(F)F)cc1Cl (stereo not drawn) [compound 1499]
- Insecticidal effect (Test Example 2), judged from mortality [1, 4]: A (100)
- Insecticidal effect (Test Example 3), judged from mortality [2, 5]: A (100)
- Insecticidal effect (Test Example 1), judged from mortality [3]: A (100)

SMILES: CCC(C)(C)NC(=O)c1c(F)cccc1C(=O)Nc1ccc(OC(F)(F)F)cc1C [compound 1154]
- Insecticidal effect, Test Example 2 [1, 7]: C (89-80)
- Insecticidal effect, Test Example 3 [2, 8]: A (100)
- Insecticidal effect, Test Example 1 [3, 9]: A (100)

SMILES: CC(C)NC(=O)c1c(Cl)cccc1C(=O)Nc1ccc(C(F)(F)C(F)(F)F)cc1C(F)(F)F [compound 1384]
- Insecticidal effect, Test Example 2 [1, 7]: A (100)
- Insecticidal effect, Test Example 3 [2, 8]: A (100)
- Insecticidal effect, Test Example 1 [3, 9]: A (100)

SMILES: Cc1cc(C(F)(F)C(F)(F)F)cc(C)c1NC(=O)c1cccc(I)c1C(=O)NC(C)C [compound 1717]
- Insecticidal effect (Test Example 2), judged from mortality [1, 4]: A (100)
- Insecticidal effect (Test Example 3), judged from mortality [2, 5]: A (100)
- Insecticidal effect (Test Example 1), judged from mortality [3]: A (100)

SMILES: Cc1cc(Br)ccc1NC(=O)c1cccc(Br)c1C(=O)NC(C)C [compound 272]
- Insecticidal effect, Test Example 2 [1, 4]: A (100)
- Insecticidal effect, Test Example 3 [2, 5]: A (100)
- Insecticidal effect, Test Example 1 [3, 6]: A (100)

SMILES: CCC(C)(C)NC(=O)c1c(F)cccc1C(=O)Nc1ccc(C(F)(C(F)(F)F)C(F)(F)F)cc1C [compound 1153]
- Insecticidal effect, Test Example 2 [1, 7]: A (100)
- Insecticidal effect, Test Example 3 [2, 8]: A (100)
- Insecticidal effect, Test Example 1 [3, 9]: A (100)

SMILES: C#CC(C)(C)NC(=O)c1c(I)cccc1C(=O)Nc1ccc(OC(F)F)cc1C [compound 1635]
- Insecticidal effect (Test Example 2), judged from mortality [1, 4]: A (100)
- Insecticidal effect (Test Example 3), judged from mortality [2, 5]: A (100)
- Insecticidal effect (Test Example 1), judged from mortality [3]: A (100)

SMILES: CCCNC(=O)c1cccc(Cl)c1C(=O)Nc1cc(-c2ccccc2)ccc1OC [compound 1297]
- Insecticidal effect, Test Example 2 [1, 7]: A (100)
- Insecticidal effect, Test Example 3 [2, 8]: A (100)
- Insecticidal effect, Test Example 1 [3, 9]: A (100)

SMILES: CCN(CC)C(=O)c1c(I)cccc1C(=O)Nc1ccc(C(F)(F)C(F)(F)F)cc1Cl [compound 1560]
- Insecticidal effect (Test Example 2), judged from mortality [1, 4]: A (100)
- Insecticidal effect (Test Example 3), judged from mortality [2, 5]: A (100)
- Insecticidal effect (Test Example 1), judged from mortality [3]: A (100)

SMILES: CCNC(=O)c1c(I)cccc1C(=O)Nc1ccc(OC(F)(F)C(F)F)cc1C [compound 1056]
- Insecticidal effect, Test Example 2 [1, 7]: A (100)
- Insecticidal effect, Test Example 3 [2, 8]: A (100)
- Insecticidal effect, Test Example 1 [3, 9]: A (100)

SMILES: Cc1cc(C(F)(F)C(F)(F)F)ccc1NC(=O)c1cccc(Cl)c1C(=O)NCc1ccccc1F [compound 1468]
- Insecticidal effect (Test Example 2), judged from mortality [1, 4]: C (89-80)
- Insecticidal effect (Test Example 3), judged from mortality [2, 5]: A (100)
- Insecticidal effect (Test Example 1), judged from mortality [3]: A (100)

SMILES: CC(C)NC(=O)c1c(C(=O)Nc2ccc([S+]([O-])C(F)(F)F)cc2)cccc1[N+](=O)[O-] (stereo not drawn) [compound 1000]
- Insecticidal effect, Test Example 2 [1, 7]: D (79-50)
- Insecticidal effect, Test Example 3 [2, 8]: A (100)
- Insecticidal effect, Test Example 1 [3, 9]: A (100)

SMILES: COCCCNC(=O)c1c(I)cccc1C(=O)Nc1ccc(C(F)(F)C(F)(F)F)cc1C [compound 985]
- Insecticidal effect, Test Example 2 [1, 7]: A (100)
- Insecticidal effect, Test Example 3 [2, 8]: A (100)
- Insecticidal effect, Test Example 1 [3, 9]: A (100)

SMILES: CC(C)NC(=O)c1c(I)cccc1C(=O)Nc1ccc(C(F)(F)C(F)(F)C(F)(F)F)cc1F [compound 1474]
- Insecticidal effect (Test Example 2), judged from mortality [1, 4]: A (100)
- Insecticidal effect (Test Example 3), judged from mortality [2, 5]: A (100)
- Insecticidal effect (Test Example 1), judged from mortality [3]: A (100)

SMILES: CCN(C(=O)c1c(I)cccc1C(=O)Nc1ccc(C(F)(F)C(F)(F)F)cc1C)C(C)C [compound 1159]
- Insecticidal effect, Test Example 2 [1, 7]: A (100)
- Insecticidal effect, Test Example 3 [2, 8]: A (100)
- Insecticidal effect, Test Example 1 [3, 9]: A (100)

SMILES: Cc1cc(OC(F)(F)C(F)C(F)(F)F)ccc1NC(=O)c1cccc(Cl)c1C(=O)NC(C)C (stereo not drawn) [compound 146]
- Insecticidal effect, Test Example 2 [1, 4]: A (100)
- Insecticidal effect, Test Example 3 [2, 5]: A (100)
- Insecticidal effect, Test Example 1 [3, 6]: A (100)

SMILES: Cc1cc(OC(F)(F)C(F)C(F)(F)F)ccc1NC(=O)c1cccc([N+](=O)[O-])c1C(=O)NC(C)C (stereo not drawn) [compound 716]
- Insecticidal effect on common cutworm (Test Example 2), judged grade [1]: A (100)
- Insecticidal effect on rice leafroller (Test Example 3), judged grade [2]: A (100)
- Insecticidal effect on diamondback moth (Test Example 1), judged grade [3]: A (100)

SMILES: Cc1cc(OC(F)F)ccc1NC(=O)c1ccc(Cl)cc1C(=O)NC(C)C [compound 180]
- Insecticidal effect, Test Example 2 [1, 4]: A (100)
- Insecticidal effect, Test Example 3 [2, 5]: A (100)
- Insecticidal effect, Test Example 1 [3, 6]: A (100)

SMILES: Cc1cc(OC(F)(F)C(F)C(F)(F)F)ccc1NC(=O)c1c(F)cccc1C(=O)NC(C)C (stereo not drawn) [compound 568]
- Insecticidal effect on common cutworm (Test Example 2), judged grade [1]: C (89-80)
- Insecticidal effect on rice leafroller (Test Example 3), judged grade [2]: A (100)
- Insecticidal effect on diamondback moth (Test Example 1), judged grade [3]: A (100)

SMILES: Cc1cc(OC(F)(F)Br)ccc1NC(=O)c1cccc([N+](=O)[O-])c1C(=O)NC(C)C [compound 711]
- Insecticidal effect on common cutworm (Test Example 2), judged grade [1]: C (89-80)
- Insecticidal effect on rice leafroller (Test Example 3), judged grade [2]: A (100)
- Insecticidal effect on diamondback moth (Test Example 1), judged grade [3]: A (100)
